The conditions of data set [1]: cited from earlier work.
The nature of data set [2]: Dependence of EGCG concentration in rat plasma on dose. The class given is in vivo. The following applies: different doses, FIG. 2.
For another data set, the system named is rats. In words: Toxicity observed in the rat pharmacokinetic study. The class given is in vivo. To be noted: peroral, maximum dose 2,500 mg/kg (G-1), without formulation. How it is done: At fixed time intervals (10 and 30 minutes, 1, 1.5, 2, 3, 8, and 24 hours), blood samples were drawn from the animals and, following centrifuging, plasma was drawn from the samples for analysis, refrigerated, and kept at −80° C. until it was needed for studies.

A short description of data set [3]: Pharmacokinetic study of EGCG in rat plasma after peroral administration. It counts as in vivo. To be noted: for AUC0-24 hr / Cmax: rat plasma. As for the experimental part:
Experiments were conducted on laboratory rats of Sprague-Dawley breed weighing between 250 g and 350 g. All studies on animals were conducted in accordance with “Guidelines for Care and Use of Experimental Animals,” […] At fixed time intervals (10 and 30 minutes, 1, 1.5, 2, 3, 8, and 24 hours), blood samples were drawn from the animals and, following centrifuging, plasma was drawn from the samples for analysis, refrigerated, and kept at −80° C. until it was needed for studies. For analytical studies to be conducted, the plasma samples were unfrozen, centrifuged, and divided into aliquots of 0.1 ml each. The samples were extracted three times in 2 ml of ethyl acetate for 5 minutes at constant shaking. Following extraction, the samples were centrifuged at 1,000 r.p.m. for 10 minutes. The supernatant was separated and placed in a glass tube.

With epigallocatechin-3-gallate [EGCG], in data set [1] (maximum possible tea drinking during the day), the “EGCG concentration in human plasma” value is 326 ng/mL. In addition, the “maximum concentration of EGCG in plasma” value in data set [1] (patients taking preparations containing green tea catechins) was at most 1 μm. Moreover, the “dependence of EGCG concentration in rat plasma on dose” value in data set [2] is “nonlinear pattern and reached a plateau at the 500 mg/kg dose”. In addition, in the data set with rats, the toxicity entry is “toxic to the animals”. In data set [3] (500 mg/kg), this substance showed an AUC0-24 hr of 49.23 ± 4.95 µg·h/mL and a Cmax of 10650 ± 1140 ng/mL. Also, in data set [3] (2.5 g/kg (G-1)), the AUC0-24 hr was 179.2 ± 54.33 µg·h/mL and the Cmax was 58600 ± 22400 ng/mL. For the same substance, the “EGCG concentration level in plasma” value in data set [3] (rat, 100 mg/kg (G-5)) was “below LOQ”.

The Cmax is the maximum level reached in the sampled fluid or tissue.
